Measured values as given in patent US6743796B2, “Piperazinyl-isatins” (Wyeth, priority 2001, dated 2004).
Counter-ions that a name gives are not always drawn.

Experiments:
[1] = tested on: dopamine D2 receptor; assay: Affinity for the dopamine D2 receptor: [3H]-spiperidone binding in homogenized limbic brain tissue; settings: ratio of IC50 D2 Spiper to IC50 D2 Quin. (LowAg/HighAg)
Description: High affinity for the dopamine D2 receptor was established by the standard pharmacological test procedure of Fields, et al., Brain Res., 136, […] (1977) and Yamamura et al., ed., Neurotransmitter Receptor Binding, Raven Press, N.Y. (1978) wherein homogenized limbic brain tissue is incubated with [^3H]-spiperidone at various concentrations of test compound, filtered washed, and shaken with Hydrofluor scintillation cocktail (National Diagnostics) and counted in a Packard 460 CD scintillation counter.

[2] = target: T1, dopamine autoreceptor (D2 Quin.) (Rattus norvegicus, UniProt P61169); assay: Affinity for the dopamine autoreceptor: [3H]-quinpirole binding in homogenized rat striatal brain tissue; settings: rat striatal brain tissue (high-affinity agonist state)
T1 construct: from tissue; host or cells: rat striatal brain tissue homogenate
T1 sequence (P61169 whole entry): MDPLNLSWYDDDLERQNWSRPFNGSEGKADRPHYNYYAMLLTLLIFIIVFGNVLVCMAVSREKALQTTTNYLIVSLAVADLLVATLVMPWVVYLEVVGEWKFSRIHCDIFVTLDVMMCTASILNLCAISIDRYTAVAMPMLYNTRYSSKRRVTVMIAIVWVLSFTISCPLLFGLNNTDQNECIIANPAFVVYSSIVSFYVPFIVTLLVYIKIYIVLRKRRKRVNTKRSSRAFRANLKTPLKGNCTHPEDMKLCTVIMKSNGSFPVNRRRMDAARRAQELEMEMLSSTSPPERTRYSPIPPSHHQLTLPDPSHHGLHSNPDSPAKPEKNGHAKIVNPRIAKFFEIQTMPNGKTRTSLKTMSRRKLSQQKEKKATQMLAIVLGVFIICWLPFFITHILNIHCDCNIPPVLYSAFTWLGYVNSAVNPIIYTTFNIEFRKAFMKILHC
Description: Affinity for the dopamine autoreceptor was established by a modification of the standard pharmacological test procedure of Seemen and Schaus, European Journal of Pharmacology 203: 105-109, 1991, wherein homogenized rat striatal brain tissue is incubated with [^3H]-quinpirole (Quin.) at various concentrations of test compound, filtered, washed and counted in a Betaplate scintillation counter.

| Compound | melting point | Ratio antagonist [1] | IC50 [2] |
| --- | --- | --- | --- |
| O=C1Nc2cccc(N3CCN(Cc4ccccc4)CC3)c2C1=O (as salt: fumarate) (hydrate or solvate) [Example V, 4-(4-Benzyl-piperazin-1-yl)-1H-indole-2,3-dione] | 118 to 120 °C |  |  |
| O=C1Nc2cccc(N3CCN(Cc4ccccc4)CC3)c2C1=O [Example V, 4-(4-Benzyl-piperazin-1-yl)-1H-indole-2,3-dione] |  | 149 | 0.57 ± 0.2 nM |
